Laboratory results as given in patent US5502035A, “N-terminus modified analogs of LHRH” (Tap Holdings Inc., priority 1994, dated 1996).
Non-standard residues stand in square brackets, D forms with d. Residues, ends and D or L forms follow the SMILES beside them. *: point of attachment. dPhe(4-Cl) = N[C@H](Cc1ccc(Cl)cc1)C(=O)O; d2Nal = N[C@H](Cc1ccc2ccccc2c1)C(=O)O; d(hCit) = NC(=O)NCCCC[C@@H](N)C(=O)O; Lys(iPr) = CC(C)NCCCC[C@H](N)C(=O)O; NMeY = CN[C@@H](Cc1ccc(O)cc1)C(=O)O; d3Pal = N[C@H](Cc1cccnc1)C(=O)O; Nicotinoyl = O=C(c1cccnc1)*; X1 = O=C([C@@H]1CCCO1)*; GABA = NCCCC(=O)O; βAla = NCCC(=O)O; Sar = CNCC(=O)O

Biological target: T1, LHRH (Rattus norvegicus, UniProt P30969)
T1 construct: endogenous in cells; host or cells: rat pituitary cells (own knowledge of the cited Haviv 1989 method)
T1 sequence (P30969 1-327): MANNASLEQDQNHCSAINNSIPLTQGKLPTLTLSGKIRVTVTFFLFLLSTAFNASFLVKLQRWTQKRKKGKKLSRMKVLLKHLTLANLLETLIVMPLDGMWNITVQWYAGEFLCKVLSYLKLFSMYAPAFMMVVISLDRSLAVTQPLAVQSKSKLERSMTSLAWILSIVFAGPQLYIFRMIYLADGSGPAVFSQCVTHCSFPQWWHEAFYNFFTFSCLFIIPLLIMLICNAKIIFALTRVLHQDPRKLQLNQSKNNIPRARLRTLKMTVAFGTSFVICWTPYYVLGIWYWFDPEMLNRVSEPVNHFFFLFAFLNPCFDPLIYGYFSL
Experiment: in vitro test for LHRH antagonist potency (pA2)
Assay type: cell-based
Details: negative logarithm of the antagonist concentration required to shift the response curve produced by the agonist leuprolide to two-fold higher concentration
Procedure, shortened: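 Rat LHRH receptor in vitro functional test; pA2 = negative log of the antagonist concentration shifting the leuprolide agonist response curve to two-fold higher concentration.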

Compared with `CC(C)C[C@H](NC(=O)[C@@H](CCCCNC(=O)c1cccnc1)NC(=O)[C@H](Cc1ccc(O)cc1)N(C)C(=O)[C@H](CO)NC(=O)[C@@H](Cc1cccnc1)NC(=O)[C@@H](Cc1ccccc1)NC(=O)[C@@H](Cc1ccc2ccccc2c1)NC(=O)CNC(=O)[C@@H]1CCCO1)C(=O)N[C@@H](CCCCNC(C)C)C(=O)N1CCC[C@H]1C(=O)N[C@H](C)C(N)=O` [Example 94, N (S)-2-Tetrahydrofuroyl-Gly-D2Nal-DPhe-D3Pal-Ser-NMeTyr-DLys(Nic)-Leu-Lys(N-epsilon-Isopropyl)-Pro-DAlaNH2] (X1-G[d2Nal][dF][d3Pal]S[NMeY][dK](Nicotinoyl)L[Lys(iPr)]P[dA]-NH2), `CC(C)C[C@H](NC(=O)[C@@H](CCCCNC(=O)c1cccnc1)NC(=O)[C@H](Cc1ccc(O)cc1)N(C)C(=O)[C@H](CO)NC(=O)[C@@H](Cc1cccnc1)NC(=O)[C@@H](Cc1ccc(Cl)cc1)NC(=O)[C@@H](Cc1ccc2ccccc2c1)NC(=O)CCNC(=O)[C@@H]1CCCO1)C(=O)N[C@@H](CCCCNC(C)C)C(=O)N1CCC[C@H]1C(=O)N[C@H](C)C(N)=O` [Example 96, N (S)-2-Tetrahydrofuroyl-Bala-D2Nal-D4ClPhe-D3Pal-Ser-NMeTyr-DLys(Nic)-Leu-Lys(Isp)-Pro-DAlaNH2] ({X1-βAla}-[d2Nal][dPhe(4-Cl)][d3Pal]S[NMeY][dK](Nicotinoyl)L[Lys(iPr)]P[dA]-NH2) is 3.3-fold higher in Kb: 0.00832 nM for the first, 0.0275 nM for the second.

Going from `CC(C)C[C@H](NC(=O)[C@@H](CCCCNC(N)=O)NC(=O)[C@H](Cc1ccc(O)cc1)NC(=O)[C@H](CO)NC(=O)[C@@H](Cc1cccnc1)NC(=O)[C@@H](Cc1ccc(Cl)cc1)NC(=O)[C@@H](Cc1ccc2ccccc2c1)NC(=O)CNC(=O)[C@@H]1CCCO1)C(=O)N[C@@H](CCCNC(=N)N)C(=O)N1CCC[C@H]1C(=O)N[C@H](C)C(N)=O` [Example 95, N-(S)-2-Tetrahydrofuroyl-Gly-D2Nal-D4ClPhe-D3Pal-Ser-Tyr-DHcit-Leu-Arg-Pro- DAlaNH2] (X1-G[d2Nal][dPhe(4-Cl)][d3Pal]SY[d(hCit)]LRP[dA]-NH2) to `CC(C)C[C@H](NC(=O)[C@@H](CCCCNC(=O)c1cccnc1)NC(=O)[C@H](Cc1ccc(O)cc1)N(C)C(=O)[C@H](CO)NC(=O)[C@@H](Cc1cccnc1)NC(=O)[C@@H](Cc1ccc(Cl)cc1)NC(=O)[C@@H](Cc1ccc2ccccc2c1)NC(=O)CCCNC(=O)[C@@H]1CCCO1)C(=O)N[C@@H](CCCCNC(C)C)C(=O)N1CCC[C@H]1C(=O)N[C@H](C)C(N)=O` [Example 97, N (S)-2-Tetrahydrofuroyl-Gaba-D2Nal-D4ClPhe-D3Pal-Ser-NMeTyr-DLys(Nic)-Leu-Lys(Isp)-Pro-DAlaNH2] ({X1-GABA}-[d2Nal][dPhe(4-Cl)][d3Pal]S[NMeY][dK](Nicotinoyl)L[Lys(iPr)]P[dA]-NH2), the Kb rises from 0.00759 nM to 0.0339 nM (4.5-fold).

Going from `CC(C)C[C@H](NC(=O)[C@@H](CCCCNC(=O)c1cccnc1)NC(=O)[C@H](Cc1ccc(O)cc1)N(C)C(=O)[C@H](CO)NC(=O)[C@@H](Cc1cccnc1)NC(=O)[C@@H](Cc1ccc(Cl)cc1)NC(=O)[C@@H](Cc1ccc2ccccc2c1)NC(=O)CN(C)C(=O)[C@@H]1CCCO1)C(=O)N[C@@H](CCCCNC(C)C)C(=O)N1CCC[C@H]1C(=O)N[C@H](C)C(N)=O` [Example 99, N (S)-2-Tetrahydrofuroyl-Sar-D2Nal-D4ClPhe-D3Pal-Ser-NMeTyr-DLys(Nic),Leu-Lys(Isp)-Pro-DAlaNH2] (X1-[Sar][d2Nal][dPhe(4-Cl)][d3Pal]S[NMeY][dK](Nicotinoyl)L[Lys(iPr)]P[dA]-NH2) to `CC(C)C[C@H](NC(=O)[C@@H](CCCCNC(=O)c1cccnc1)NC(=O)[C@H](Cc1ccc(O)cc1)N(C)C(=O)[C@H](CO)NC(=O)[C@@H](Cc1cccnc1)NC(=O)[C@@H](Cc1ccc(Cl)cc1)NC(=O)CN(C)C(=O)CNC(=O)[C@@H]1CCCO1)C(=O)N[C@@H](CCCCNC(C)C)C(=O)N1CCC[C@H]1C(=O)N[C@H](C)C(N)=O` [Example 101, N (S)-2-Tetrahydrofuroyl-Gly-Sar-D4ClPhe-D3Pal-Ser-NMeTyr-DLys(Nic)-Leu-Lys(Isp)-Pro-DAlaNH2] (X1-G[Sar][dPhe(4-Cl)][d3Pal]S[NMeY][dK](Nicotinoyl)L[Lys(iPr)]P[dA]-NH2), the Kb rises from 0.0117 nM to 42.7 nM (3600-fold).

`CC(C)C[C@H](NC(=O)[C@@H](CCCCNC(=O)c1cccnc1)NC(=O)[C@H](Cc1ccc(O)cc1)N(C)C(=O)[C@H](CO)NC(=O)[C@@H](Cc1cccnc1)NC(=O)[C@@H](Cc1ccc(Cl)cc1)NC(=O)[C@@H](C)NC(=O)CNC(=O)[C@@H]1CCCO1)C(=O)N[C@@H](CCCCNC(C)C)C(=O)N1CCC[C@H]1C(=O)N[C@H](C)C(N)=O` [Example 100, N (S)-2-Tetrahydrofuroyl-Gly-DAla-D4ClPhe-D3Pal-Ser-NMeTyr-DLys(Nic)-Leu-Lys(Isp)-Pro-DAlaNH2] (X1-G[dA][dPhe(4-Cl)][d3Pal]S[NMeY][dK](Nicotinoyl)L[Lys(iPr)]P[dA]-NH2) was tested, and the Kb was 21.9 nM.
